Earlier results, collected in US7939561B2, “Blister packaging for acute pain regimens” (APR Applied Pharma Research s.a., priority 2006, dated 2011).

behaviour in an acidic environment: tendency to precipitate
Structure (SMILES): O=C(O)Cc1ccccc1Nc1c(Cl)cccc1Cl [diclofenac potassium]
